In brackets after ≈: the same amount, converted by molar mass. Activity calls are given as the source filed them. No cut-off for these calls is given here.
Legend:
[1] = system: Mycobacterium tuberculosis; assay: Antimycobacterial activity against Mycobacterium tuberculosis H37Ra ATCC 25177 assessed as inhibition of bacterial growth; format: functional, organism-based
[2] = system: Staphylococcus aureus; assay: Antibacterial activity against Staphylococcus aureus ATCC 29213 assessed as inhibition of bacterial growth; format: functional, organism-based
[3] = system: SMMC-7721; assay: Cytotoxicity against human SMMC-7721 cells assessed as inhibition of cell growth incubated for 68 hrs by MTT assay; format: functional, cell-based; conditions: SMMC-7721, 68 h
[4] = system: Pseudomonas aeruginosa; assay: Antibacterial activity against Pseudomonas aeruginosa ATCC 10145 assessed as inhibition of bacterial growth at 100 microg/ml; format: functional, organism-based; conditions: dose 100.0 µg/ml
[5] = system: Mycobacterium tuberculosis; assay: Antimycobacterial activity against Mycobacterium tuberculosis H37Ra ATCC 25177 assessed as inhibition of bacterial growth at 100 microg/ml; format: functional, organism-based; conditions: dose 100.0 µg/ml
[6] = system: Staphylococcus aureus; assay: Antibacterial activity against Staphylococcus aureus ATCC 29213 assessed as inhibition of bacterial growth at 100 microg/ml; format: functional, organism-based; conditions: dose 100.0 µg/ml
[7] = system: Candida albicans; assay: Antifungal activity against Candida albicans ATCC 14053 assessed as inhibition of bacterial growth at 100 microg/ml; format: functional, organism-based; conditions: dose 100.0 µg/ml

SMILES	IC50 [3] [µM]	Activity [4]	Activity [5]	Activity [6]	Activity [7]	other results
C/C1=C/[C@@H](OC(=O)CCC(=O)O)/C=C(/C=O)[C@H]2CC(C)(C)[C@]2(O)CC1	–	–	–	–	–	IC50 [1]: 36.8 µg/mL (≈ 105 µM); IC50 [2]: 83 µg/mL (≈ 237 µM)
CO[C@H]1[C@@H]2[C@@H](O)O[C@]3([C@H](OC(C)=O)C/C(C)=C\[C@@H]1OC)[C@H]2CC3(C)C	28.3	–	–	–	–	–
CC1(C)C[C@@H]2/C(CO)=C\C=C/[C@@](C)(O)CC[C@]21O	–	inactive	inactive	inactive	inactive	–
CC1(C)C[C@@H]2[C@@]3(CO)C=C[C@@H](O)[C@@]3(C)CC[C@]21O	–	inactive	inactive	inactive	inactive	–
COc1cc([C@@H]2c3cc4c(cc3[C@@H](O[C@@H]3O[C@@H]5CO[C@@H](C)O[C@H]5[C@H](O)[C@H]3O)[C@H]3COC(=O)[C@H]23)OCO4)cc(OC)c1O [ETOPOSIDE]	23.2	–	–	–	–	–
